These results are taken from ChEMBL document CHEMBL3352702, “Design, synthesis and in vitro antikinetoplastid evaluation of N-acylated putrescine, spermidine and spermine derivatives” (Bioorg Med Chem Lett, 2015).

Data set [1] relates to RAW264.7. Briefly: Cytotoxicity against mouse RAW264.7 cells assessed as reduction in cell viability up to 100 uM. In kind it is cell-based.
Data set [2] deals with Leishmania donovani. Briefly: Antikinetoplastid activity against Leishmania donovani LV9 […] amastigotes in mouse RAW264.7 cells assessed as viability measured 24 hrs by SYBR green assay. The following applies: LV9, RAW264.7, 24 h. In kind it is functional, organism-based.
Data set [3] has as its system Trypanosoma brucei. The experiment in a line: Antikinetoplastid activity against Trypanosoma brucei gambiense assessed as parasite growth inhibition. In kind it is functional, organism-based.
Data set [4] in a line: Selectivity index, ratio of cytotoxicity against mouse RAW264.7 cells to IC50 for Trypanosoma brucei gambiense. The following applies: read-out: Selectivity Index. In kind it is toxicity, cell-based.

Consider `CC(C)(C)OC(=O)NCCCCNCCCNC(=O)OC(C)(C)C`, for which, in data set [1], the Activity entry is reported as “Non-toxic”. Besides, the IC50 in data set [2] and in data set [3] was greater than 100 µM each time.
On to `COCC(=O)NCCCCN(CCCNC(=O)OC(C)(C)C)C(=O)OC(C)(C)C`, for which, in data set [1], the Activity entry is on record as “Non-toxic”. The IC50 in data set [2] and in data set [3] was greater than 100 µM in each case.
With `CC(=O)NCCC(=O)NCCSCC(=O)NCCCNCCCCNCCCN.Cl`, the Activity result in data set [1] is “Non-toxic”. Besides, the IC50 (commonly the concentration that inhibits the measured activity by half) in data set [2] is greater than 100 µM; in data set [3] it was 2.98 µM.
As for `CC(C)(C)OC(=O)NCCCCN`, the Activity entry in data set [1] is recorded as “Non-toxic”. The IC50 in data set [2] and in data set [3] was greater than 100 µM in each case.
Take `CC(=O)NCCSCC(=O)NCCCNCCCCNCCCN.Cl`: the selectivity ratio in data set [4] was greater than 52. In addition, the Activity entry in data set [1] is given as “Non-toxic”. For the same compound, the values for the IC50 in data set [2] and in data set [3] were greater than 100 µM and 1.92 µM, respectively.
In the case of `CC(C)(C)OC(=O)NCCCCN(CCC#N)C(=O)OC(C)(C)C`, the Activity result in data set [1] is “Non-toxic”. The IC50 in data set [2] and in data set [3] was greater than 100 µM in each case.
On to `COCC(=O)N(CCCN)CCCCN.Cl`, for which the Activity entry in data set [1] is listed as “Non-toxic”. Moreover, the IC50 in data set [2] and in data set [3] was greater than 100 µM each time.
On to `COCC(=O)NCCCCNCCCN.Cl`, for which the Activity result in data set [1] is reported as “Non-toxic”. In addition, the IC50 turned out to be 50 µM in data set [2] and 15.6 µM in data set [3].
Take `CCCCCCCCCCCCCCCCOP(=O)([O-])OCC[N+](C)(C)C` [MILTEFOSINE]: the IC50 in data set [2] was found to be 10.2 µM.
With `COCC(=O)NCCCNCCCCN.Cl`, in data set [1], the Activity result is “Non-toxic”. Also, the IC50 in data set [2] was 5.47 µM; in data set [3] it was greater than 100 µM.
In the case of `COCC(=O)N(CCCCNC(=O)OC(C)(C)C)CCCNC(=O)OC(C)(C)C`, the Activity entry in data set [1] was “Non-toxic”. The IC50 in data set [2] and in data set [3] was greater than 100 µM each time.
For `CC(=O)NCCC(=O)NCCSCC(=O)NCCCNCCCCN.Cl`, the Activity result in data set [1] is on record as “Non-toxic”. Besides, the IC50 in data set [2] is greater than 100 µM; in data set [3], 11.5 µM.
In the same order, the values of `COCC(=O)NCCCCNC(=O)OC(C)(C)C` are “Non-toxic”, greater than 100 µM and greater than 100 µM.
For the compound `N=C(N)c1ccc(OCCCCCOc2ccc(C(=N)N)cc2)cc1` [PENTAMIDINE], the results for the IC50 in data set [2] and in data set [3] were 4.21 µM and 0.011 µM, respectively.
On to `CC(=O)NCCSCC(=O)NCCCNCCCCN.Cl`, for which the Activity entry in data set [1] is on record as “Non-toxic”. The IC50 worked out at 70.8 µM in data set [2] and 14.8 µM in data set [3].
In the same order, the values of `COCC(=O)NCCCN(CCCCNC(=O)OC(C)(C)C)C(=O)OC(C)(C)C` are “Non-toxic”, greater than 100 µM and greater than 100 µM.
Turning to `COCC(=O)NCCCCN.Cl`, in data set [1], the Activity entry is recorded as “Non-toxic”. Further, the IC50 in data set [2] and in data set [3] was greater than 100 µM throughout.
With `CC(=O)NCCSCC(=O)NCCCCNCCCN.Cl`, the Activity entry in data set [1] was “Non-toxic”. Besides, the IC50 was greater than 100 µM in data set [2] and 5.75 µM in data set [3].
As for `CC(C)(C)OC(=O)NCCCCN(CCCN)C(=O)OC(C)(C)C`, the Activity result in data set [1] is “Non-toxic”. The IC50 in data set [2] is greater than 100 µM; in data set [3], 11.6 µM.
